Measurements from patent US20170360795A1, “TREATMENT OF CANCERS USING PI3 KINASE ISOFORM MODULATORS” (INFINITY PHARMACEUTICALS, INC., priority 2013, published 2017).
One block for each compound: values may come before it.

Assays:
GRANTA-519 = GRANTA-519 (mantle cell lymphoma); combination with Compound 292
Protocol: (§1) The method is described as follows. Cells are thawed from a liquid nitrogen preserved state. Once cells have been expanded and divide at their expected doubling times, screening begins. Cells are seeded in growth media in either black 1536-well or 384-well tissue culture treated plates. […] These Tzero (T0) plates are read using ultra-sensitive luminescence on Envision plate readers (Perkin Elmer). […] All data points are collected via automated processes, quality controlled and analyzed using Zalicus software.
(§2) I ranges from 0% (when T=V) to 100% (when T=0). […] The measure of effect in the experiment can be the inhibition of cellular response relative to the untreated level (vehicle alone). For untreated vehicle and treated levels V and T, a fractional inhibition I=1−T/V is calculated. The inhibition ranges from 0% at the untreated level to 100% when T=0. Inhibition levels are negative for agents that actually increase levels. Other effect measures, such as an activity ratio r=T/V may be more appropriate for some assays. When activity ratios (e.g, fold increase over stimulated control) are being used, the effect can be measured using an induction I=ln(T/V). With this definition, all effect expressions are the same as for inhibition.
(§3) Growth Inhibition (GI) is used as a measure of cell viability. […] A GI reading of 100% represents complete growth inhibition −T72 compound-treated and T0 vehicle signals are matched. […] A GI reading of 200% represents complete death of all cells in the culture well. Compounds reaching an activity plateau of GI 200% are considered cytotoxic. GI is calculated by applying the following test and equation: […]
(§4) Combination analysis data were collected in a 6×6 dose matrix. Synergy is calculated by comparing a combination's response to those of its single compound, against the drug-with-itself dose-additive reference model. Deviations from dose additivity may be assessed visually on an isobologram or numerically with a Combination Index (CI). […] Additive effect is CI=1.0. […] Antagonistic effect is CI>1.0.
(§5) To measure combination effects in excess of Loewe additivity, a scalar measure to characterize the strength of synergistic interaction termed the Synergy Score is devised. The Synergy Score is calculated as: […]
(§6) The fractional inhibition for each component agent and combination point in the matrix is calculated relative to the median of all vehicle-treated control wells. The Synergy Score equation integrates the experimentally-observed activity volume at each point in the matrix in excess of a model surface numerically derived from the activity of the component agents using the Loewe model for additivity. Additional terms in the Synergy Score equation (above) are used to normalize for various dilution factors used for individual agents and to allow for comparison of synergy scores across an entire experiment. The inclusion of positive inhibition gating or an Idata multiplier removes noise near the zero effect level, and biases results for synergistic interactions at that occur at high activity levels.

HBL-1 = HBL-1 (DLBCL ABC); combination with Compound 292
Protocol: as §1, §2, §3, §4, §5, §6

HH = HH (T cell lymphoma); combination with Compound 292
Protocol: as §1, §2, §3, §4, §5, §6

Jeko-1 = Jeko-1 (mantle cell lymphoma); combination with Compound 292
Protocol: as §1, §2, §3, §4, §5, §6

KARPAS-299 = KARPAS-299 (T cell lymphoma); combination with Compound 292
Protocol: as §1, §2, §3, §4, §5, §6

KARPAS-422 = KARPAS-422 (follicular lymphoma); combination with Compound 292
Protocol: as §1, §2, §3, §4, §5, §6

NCI-H929 = NCI-H929 (multiple myeloma); combination with Compound 292
Protocol: as §1, §2, §3, §4, §5, §6

OCI-LY3 = conditions: OCI-Ly3 (DLBCL ABC); combination with Compound 292
Protocol: as §1, §2, §3, §4, §5, §6

OCI-Ly7 = OCI-Ly7 (DLBCL GCB); combination with Compound 292
Protocol: as §1, §2, §3, §4, §5, §6

OPM-2 = OPM-2 (multiple myeloma); combination with Compound 292
Protocol: as §1, §2, §3, §4, §5, §6

U-2932 = U-2932 (DLBCL ABC); combination with Compound 292
Protocol: as §1, §2, §3, §4, §5, §6

RPMI-8226 = assay: combination screen with BTK inhibitors, 72 hours ATPLite; assay type: cell-based; conditions: RPMI-8226 (multiple myeloma); combination with Compound 292
Protocol: as §1, §2, §3, §4, §5
(§7) The fractional inhibition for each component agent and combination point in the matrix is calculated relative to the median of all vehicle-treated control wells. The Synergy Score equation integrates the experimentally-observed activity volume at each point in the matrix in excess of a model surface numerically derived from the activity of the component agents using the Loewe model for additivity. […]

PI3K δ = PI3K δ (Homo sapiens, UniProt O00329); assay: In vitro IC50, PI3K δ (Table 3); assay type: biochemical; set-up: purchased Upstate
Text: (§8) Other commercial kits or systems for assaying PI3K activities are available. […] An exemplary system is PI 3-Kinase (human) HTRF™ Assay from Upstate.

PI3K α = target: T1, PI3K α (Homo sapiens, UniProt P42336); assay: In vitro IC50, PI3K α (Table 3); assay type: biochemical
T1 construct: purchased Upstate
Text: as §8

PI3K β = target: T2, PI3K β (Homo sapiens, UniProt P42338); assay: In vitro IC50, PI3K β (Table 3); assay type: biochemical
T2 construct: purchased Upstate
Text: as §8

B cell = B cell proliferation EC50 (Table 3); assay type: cell-based
PI3K γ = PI3K γ (Homo sapiens, UniProt P48736); assay: In vitro IC50, PI3K γ (Table 3); assay type: biochemical; set-up: purchased Sigma
Text: as §8

RL = assay: combination screen with BTK inhibitors, 72 hours ATPLite; assay type: cell-based; conditions: RL (follicular lymphoma); combination with Compound 292
Protocol: as §1, §2, §3, §4, §5, §7

Sequence of PI3K γ (P48736 whole entry): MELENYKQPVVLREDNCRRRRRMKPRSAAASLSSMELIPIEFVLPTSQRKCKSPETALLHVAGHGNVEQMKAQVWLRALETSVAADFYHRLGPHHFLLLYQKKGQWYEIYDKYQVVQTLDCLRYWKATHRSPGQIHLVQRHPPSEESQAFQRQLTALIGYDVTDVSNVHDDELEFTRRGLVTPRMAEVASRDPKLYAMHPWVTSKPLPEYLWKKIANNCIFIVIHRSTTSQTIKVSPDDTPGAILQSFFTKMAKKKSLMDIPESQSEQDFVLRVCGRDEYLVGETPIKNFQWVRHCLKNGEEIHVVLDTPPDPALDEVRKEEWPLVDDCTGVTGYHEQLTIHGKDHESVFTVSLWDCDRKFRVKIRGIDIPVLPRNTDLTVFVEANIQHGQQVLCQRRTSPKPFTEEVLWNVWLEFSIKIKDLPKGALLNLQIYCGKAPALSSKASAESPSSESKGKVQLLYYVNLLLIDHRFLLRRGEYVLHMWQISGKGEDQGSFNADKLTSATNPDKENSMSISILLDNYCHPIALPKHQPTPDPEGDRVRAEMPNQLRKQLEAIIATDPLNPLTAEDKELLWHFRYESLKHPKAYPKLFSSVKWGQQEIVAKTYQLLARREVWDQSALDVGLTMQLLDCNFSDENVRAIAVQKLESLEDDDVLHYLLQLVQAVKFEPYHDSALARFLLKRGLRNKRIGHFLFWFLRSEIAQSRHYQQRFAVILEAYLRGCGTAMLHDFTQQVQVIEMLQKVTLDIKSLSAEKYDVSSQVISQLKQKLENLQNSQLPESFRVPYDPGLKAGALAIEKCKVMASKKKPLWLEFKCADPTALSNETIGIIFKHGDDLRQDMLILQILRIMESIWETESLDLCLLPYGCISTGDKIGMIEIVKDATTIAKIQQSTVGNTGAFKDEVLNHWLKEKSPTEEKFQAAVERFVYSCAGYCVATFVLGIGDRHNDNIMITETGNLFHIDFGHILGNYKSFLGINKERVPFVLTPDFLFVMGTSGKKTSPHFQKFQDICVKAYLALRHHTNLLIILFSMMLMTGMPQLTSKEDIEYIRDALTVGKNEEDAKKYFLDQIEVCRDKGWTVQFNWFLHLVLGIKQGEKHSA
T1 sequence (P42336 whole entry): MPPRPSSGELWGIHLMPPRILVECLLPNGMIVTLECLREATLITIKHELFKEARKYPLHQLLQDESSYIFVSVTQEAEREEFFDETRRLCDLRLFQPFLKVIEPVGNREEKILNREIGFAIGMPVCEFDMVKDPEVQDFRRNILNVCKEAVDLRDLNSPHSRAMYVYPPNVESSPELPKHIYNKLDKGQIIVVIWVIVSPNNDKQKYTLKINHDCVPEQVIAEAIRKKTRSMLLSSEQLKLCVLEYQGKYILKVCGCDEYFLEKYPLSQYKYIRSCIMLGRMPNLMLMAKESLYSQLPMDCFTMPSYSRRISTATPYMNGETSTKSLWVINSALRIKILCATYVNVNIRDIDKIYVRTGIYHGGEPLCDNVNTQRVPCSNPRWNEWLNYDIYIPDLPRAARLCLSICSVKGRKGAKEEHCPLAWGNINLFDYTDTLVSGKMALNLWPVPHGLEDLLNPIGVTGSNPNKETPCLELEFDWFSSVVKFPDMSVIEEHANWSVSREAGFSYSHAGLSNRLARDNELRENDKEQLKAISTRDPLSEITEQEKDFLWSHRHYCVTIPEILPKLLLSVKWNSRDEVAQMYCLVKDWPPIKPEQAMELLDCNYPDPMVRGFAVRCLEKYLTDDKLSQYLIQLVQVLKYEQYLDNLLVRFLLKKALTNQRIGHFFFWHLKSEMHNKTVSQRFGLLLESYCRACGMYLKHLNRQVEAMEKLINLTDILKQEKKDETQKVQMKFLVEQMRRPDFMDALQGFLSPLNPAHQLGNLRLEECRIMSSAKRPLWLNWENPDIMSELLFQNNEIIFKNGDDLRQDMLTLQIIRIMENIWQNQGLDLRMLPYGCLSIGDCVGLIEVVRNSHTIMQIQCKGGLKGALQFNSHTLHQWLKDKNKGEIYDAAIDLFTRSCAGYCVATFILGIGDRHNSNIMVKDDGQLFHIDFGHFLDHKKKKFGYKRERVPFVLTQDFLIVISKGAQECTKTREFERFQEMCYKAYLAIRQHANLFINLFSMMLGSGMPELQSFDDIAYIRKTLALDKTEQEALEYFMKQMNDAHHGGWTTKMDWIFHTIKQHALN
T1 sequence (P27986 whole entry partner): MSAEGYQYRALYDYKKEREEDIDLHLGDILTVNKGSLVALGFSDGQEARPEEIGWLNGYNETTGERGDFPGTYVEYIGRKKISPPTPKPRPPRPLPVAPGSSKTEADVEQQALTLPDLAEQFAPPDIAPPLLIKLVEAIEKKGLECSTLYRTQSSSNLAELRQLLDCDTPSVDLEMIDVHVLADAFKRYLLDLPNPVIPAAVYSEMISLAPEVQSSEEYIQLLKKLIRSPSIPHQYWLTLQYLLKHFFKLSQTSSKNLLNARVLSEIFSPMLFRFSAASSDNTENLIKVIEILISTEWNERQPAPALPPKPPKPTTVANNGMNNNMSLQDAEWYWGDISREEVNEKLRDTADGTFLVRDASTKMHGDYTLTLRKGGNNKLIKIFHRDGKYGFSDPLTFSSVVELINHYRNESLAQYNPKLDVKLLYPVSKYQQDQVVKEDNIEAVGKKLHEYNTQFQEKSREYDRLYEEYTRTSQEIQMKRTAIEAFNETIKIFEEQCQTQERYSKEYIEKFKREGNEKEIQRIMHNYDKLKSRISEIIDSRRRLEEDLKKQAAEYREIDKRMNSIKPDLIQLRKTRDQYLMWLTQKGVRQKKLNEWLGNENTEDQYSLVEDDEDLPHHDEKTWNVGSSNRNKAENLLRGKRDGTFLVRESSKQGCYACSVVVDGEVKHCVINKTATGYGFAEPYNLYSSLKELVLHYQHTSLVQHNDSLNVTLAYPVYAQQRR
T2 sequence (P42338 whole entry): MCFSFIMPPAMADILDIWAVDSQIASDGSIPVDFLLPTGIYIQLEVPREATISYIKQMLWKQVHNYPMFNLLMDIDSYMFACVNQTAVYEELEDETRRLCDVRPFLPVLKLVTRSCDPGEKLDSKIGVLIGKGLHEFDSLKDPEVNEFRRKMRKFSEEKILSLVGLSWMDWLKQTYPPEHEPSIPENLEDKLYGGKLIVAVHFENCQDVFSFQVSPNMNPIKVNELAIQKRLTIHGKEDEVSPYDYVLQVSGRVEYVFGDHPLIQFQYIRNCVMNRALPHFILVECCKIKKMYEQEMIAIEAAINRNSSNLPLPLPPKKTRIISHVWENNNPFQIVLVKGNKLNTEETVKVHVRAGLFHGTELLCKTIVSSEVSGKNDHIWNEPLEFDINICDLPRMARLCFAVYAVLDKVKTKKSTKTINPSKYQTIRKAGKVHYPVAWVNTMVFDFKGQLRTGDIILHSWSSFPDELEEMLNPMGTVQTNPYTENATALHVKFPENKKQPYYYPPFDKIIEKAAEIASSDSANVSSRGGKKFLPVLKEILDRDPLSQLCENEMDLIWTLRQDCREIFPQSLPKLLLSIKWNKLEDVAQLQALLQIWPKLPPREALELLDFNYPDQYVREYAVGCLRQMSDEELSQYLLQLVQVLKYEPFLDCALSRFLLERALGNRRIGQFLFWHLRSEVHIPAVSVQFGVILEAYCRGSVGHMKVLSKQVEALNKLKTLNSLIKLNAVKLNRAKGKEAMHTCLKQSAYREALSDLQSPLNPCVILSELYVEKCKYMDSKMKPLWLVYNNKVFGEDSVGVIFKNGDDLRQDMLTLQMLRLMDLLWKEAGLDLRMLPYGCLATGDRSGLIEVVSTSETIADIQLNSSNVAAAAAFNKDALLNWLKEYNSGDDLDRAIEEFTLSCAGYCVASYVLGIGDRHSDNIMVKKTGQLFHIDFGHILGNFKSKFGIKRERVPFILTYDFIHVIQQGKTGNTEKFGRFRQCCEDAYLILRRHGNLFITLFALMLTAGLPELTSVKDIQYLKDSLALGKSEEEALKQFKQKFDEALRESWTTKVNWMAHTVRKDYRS
T2 sequence (P27986 whole entry partner): as the sequence (P27986 whole entry partner) above
Sequence of PI3K δ (O00329 whole entry): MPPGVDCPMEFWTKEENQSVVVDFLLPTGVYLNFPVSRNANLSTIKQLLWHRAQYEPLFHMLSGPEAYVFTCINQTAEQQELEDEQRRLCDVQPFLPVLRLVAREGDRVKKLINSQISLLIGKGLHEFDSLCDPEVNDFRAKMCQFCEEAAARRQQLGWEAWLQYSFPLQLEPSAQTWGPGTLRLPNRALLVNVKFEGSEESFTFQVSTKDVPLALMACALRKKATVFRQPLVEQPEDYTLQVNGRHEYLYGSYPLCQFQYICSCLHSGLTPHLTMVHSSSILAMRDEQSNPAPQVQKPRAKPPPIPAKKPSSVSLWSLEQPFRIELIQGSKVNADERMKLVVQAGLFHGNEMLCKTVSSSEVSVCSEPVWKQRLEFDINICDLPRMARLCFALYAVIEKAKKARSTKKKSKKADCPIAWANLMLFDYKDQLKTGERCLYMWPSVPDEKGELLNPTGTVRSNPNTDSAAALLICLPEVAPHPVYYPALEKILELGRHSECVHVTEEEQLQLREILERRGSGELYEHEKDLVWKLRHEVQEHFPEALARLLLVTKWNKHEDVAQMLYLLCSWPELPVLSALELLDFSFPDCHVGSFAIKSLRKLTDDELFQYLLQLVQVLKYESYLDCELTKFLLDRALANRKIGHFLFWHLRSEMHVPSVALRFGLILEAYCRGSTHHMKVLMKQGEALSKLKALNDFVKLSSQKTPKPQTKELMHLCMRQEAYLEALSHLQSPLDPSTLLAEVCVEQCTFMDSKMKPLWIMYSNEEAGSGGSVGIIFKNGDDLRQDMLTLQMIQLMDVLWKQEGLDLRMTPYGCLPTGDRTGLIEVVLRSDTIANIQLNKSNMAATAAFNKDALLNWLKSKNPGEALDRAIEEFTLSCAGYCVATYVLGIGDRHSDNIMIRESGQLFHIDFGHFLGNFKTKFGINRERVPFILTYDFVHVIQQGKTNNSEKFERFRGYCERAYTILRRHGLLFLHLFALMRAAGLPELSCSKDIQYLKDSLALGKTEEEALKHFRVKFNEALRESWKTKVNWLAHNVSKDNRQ
Sequence of PI3K δ (P27986 whole entry partner): as the sequence (P27986 whole entry partner) above

SMILES: C=CC(=O)Nc1cccc(Nc2nc(Nc3ccc(OCCOC)cc3)ncc2F)c1 [AVL-292, N-(3-((5-fluoro-2-((4-(2-methoxyethoxy)phenyl)amino)pyrimidin-4-yl)amino)phenyl)acrylamide]
CI50 (growth inhibition) (GRANTA-519): W (W=≧1)
CI50 (inhibition) (HBL-1): W (W=≧1)
CI50 (inhibition) (HH): U (U=0.7 to <1)
CI50 (growth inhibition) (Jeko-1): U (U=0.7 to <1)
CI50 (inhibition) (Jeko-1): U (U=0.7 to <1)
CI50 (growth inhibition) (KARPAS-299): U (U=0.7 to <1)
CI50 (growth inhibition) (KARPAS-422): U (U=0.7 to <1)
CI50 (growth inhibition) (NCI-H929): U (U=0.7 to <1)
CI50 (inhibition) (NCI-H929): U (U=0.7 to <1)
CI50 (growth inhibition) (OCI-LY3): U (U=0.7 to <1)
CI50 (growth inhibition) (OCI-Ly7): W (W=≧1)
CI50 (inhibition) (OPM-2): U (U=0.7 to <1)
CI50 (inhibition) (U-2932): W (W=≧1)
CI50 (growth inhibition) (RPMI-8226): U (U=0.7 to <1)
CI50 (inhibition) (RPMI-8226): W (W=≧1)

SMILES: Cc1ccccc1-n1c(Cn2nc(I)c3c(N)ncnc32)cc2cccc(C)c2c1=O [Compound 31]
IC50 (PI3K δ): < 1 µM

SMILES: N#Cc1nn(Cc2cc3ccccc3c(=O)n2-c2ccccc2F)c2ncnc(N)c12 [Compound 169]
IC50 (PI3K α): > 10 µM
IC50 (PI3K β): > 10 µM
EC50 (B cell): < 1 µM
IC50 (PI3K γ): > 10 µM
IC50 (PI3K δ): < 0.1 µM

SMILES: Cc1cccc2cc(C(C)n3nc(-c4cn[nH]c4)c4c(N)ncnc43)n(C3CCN(C)CC3)c(=O)c12 (stereo not shown) [Compound 226]
IC50 (PI3K δ): < 1 µM

SMILES: Cc1cccc2cc(C(C)Nc3ncnc4[nH]cnc34)n(C3CCN(C)CC3)c(=O)c12 (stereo not shown) [Compound 228]
IC50 (PI3K β): < 10 µM
IC50 (PI3K δ): < 1 µM

SMILES: C=CC(=O)N1CCC[C@@H](n2nc(-c3ccc(Oc4ccccc4)cc3)c3c(N)ncnc32)C1 [ibrutinib]
CI50 (growth inhibition) (NCI-H929): U (U=0.7 to <1)
CI50 (growth inhibition) (RL): U (U=0.7 to <1)
CI50 (inhibition) (RL): W (W=≧1)

Next, values leading:

IC50 (PI3K α): > 10 µM
IC50 (PI3K β): > 10 µM
IC50 (PI3K γ): < 1 µM
SMILES: Cc1cccc2cc([C@H](C)Nc3ncnc4[nH]cnc34)n(-c3ccccc3)c(=O)c12 [Compound 238]

IC50 (PI3K β): < 10 µM
IC50 (PI3K γ): < 1 µM
IC50 (PI3K δ): < 1 µM
SMILES: CC(=O)Nc1nc2cc(-c3nn(Cc4cc5cccc(C)c5c(=O)n4-c4ccccc4)c4ncnc(N)c34)ccc2o1 [Compound 269]

IC50 (PI3K α): > 10 µM
IC50 (PI3K β): > 10 µM
IC50 (PI3K γ): > 10 µM
IC50 (PI3K δ): > 10 µM
SMILES: Cc1cccc2cc([C@H](C)Nc3ncnc4[nH]c(Cl)cc34)n(C3CC3)c(=O)c12 [Compound 280]
